Values belong to the molecule of their own block, whether it stands above or below them. The source made the active and inactive calls. The calls are words filed in the database; no cut-off is given here.
Experiments:
DCAF11-BRD4 [1] = target: T1, DCAF11-BRD4 (Homo sapiens, UniProt O60885+Q8TEB1); assay: PROTAC activity at DCAF11/BRD4 in human MDA-MB-231 cells assessed as induction of BRD4 degradation at 10 uM incubated for 12 hrs by immunoblot analysis; type: cell-based
MDA-MB-231 [2] = assay: Induction of apoptosis in human MDA-MB-231 cells assessed as increase in cleaved caspase-7 level by immunoblot analysis; type: functional, cell-based
MDA-MB-231 [3] = assay: Induction of apoptosis in human MDA-MB-231 cells assessed as increase in cleaved PARP level by immunoblot analysis; type: functional, cell-based
MDA-MB-468 [4] = assay: Antiproliferative activity against human MDA-MB-468 cells assessed as reduction in cell viability incubated for 2 days in presence of JQ1 by CCK8 assay; type: functional, cell-based; details: MDA-MB-468, 48 h
MDA-MB-231 [5] = assay: Antiproliferative activity against human MDA-MB-231 cells assessed as reduction in cell viability incubated for 2 days by CCK8 assay; type: functional, cell-based; details: MDA-MB-231, 48 h
MDA-MB-231 [6] = assay: Antiproliferative activity against human MDA-MB-231 cells assessed as reduction in cell viability incubated for 2 days in presence of JQ1 by CCK8 assay; type: functional, cell-based; details: MDA-MB-231, 48 h
MDA-MB-468 [7] = assay: Antiproliferative activity against human MDA-MB-468 cells assessed as reduction in cell viability incubated for 2 days by CCK8 assay; type: functional, cell-based; details: MDA-MB-468, 48 h
MCF7 = assay: Antiproliferative activity against human MCF7 cells assessed as reduction in cell viability incubated for 2 days by CCK8 assay; type: functional, cell-based; details: MCF7, 48 h
DCAF11-BRD4 [8] = target: T1, DCAF11-BRD4; assay: PROTAC activity at DCAF11/BRD4 in human BT-549 cells assessed as induction of BRD4 degradation at 1 uM incubated for 12 hrs by immunoblot analysis; type: cell-based
MDA-MB-231 [9] = assay: Downregulation of BRD4 protein expression in human MDA-MB-231 cells at 1 uM incubated for 6 hrs by proteomic analysis; type: functional, cell-based
HEK293T [10] = assay: Induction of BRD4 BD1 domain (unknown origin) degradation expressed in DCAF11 knockout HEK293T cells at 1 uM incubated for 12 hrs by immunoblot analysis; type: cell-based; details: Homo sapiens
T47D = assay: Antiproliferative activity against human T47D cells assessed as reduction in cell viability incubated for 2 days by CCK8 assay; type: functional, cell-based; details: 48 h
DCAF11-BRD4 [11] = target: T1, DCAF11-BRD4; assay: PROTAC activity at DCAF11/BRD4 in human MDA-MB-468 cells assessed as induction of BRD4 degradation at 1 uM incubated for 12 hrs by immunoblot analysis; type: cell-based
DCAF11-BRD4 [12] = target: T1, DCAF11-BRD4; assay: PROTAC activity at DCAF11/BRD4 in human MDA-MB-157 cells assessed as induction of BRD4 degradation at 1 uM incubated for 12 hrs by immunoblot analysis; type: cell-based
MDA-MB-157 = assay: Antiproliferative activity against human MDA-MB-157 cells assessed as reduction in cell viability incubated for 2 days by CCK8 assay; type: functional, cell-based; details: MDA-MB-157, 48 h
DCAF11-BRD4 [13] = target: T1, DCAF11-BRD4; assay: Binding affinity to DCAF11/BRD4 BD1 domain in HEK293T cells by co-immunoprecipitation analysis; type: cell-based
DCAF11-BRD4 [14] = target: T1, DCAF11-BRD4; assay: PROTAC activity at DCAF11/BRD4 in human MDA-MB-231 cells assessed as induction of BRD4 degradation by immunoblot analysis; type: cell-based
HCC1937 = assay: Antiproliferative activity against human HCC1937 cells assessed as reduction in cell viability incubated for 2 days by CCK8 assay; type: functional, cell-based; details: HCC1937, 48 h
BT-549 = assay: Antiproliferative activity against human BT-549 cells assessed as reduction in cell viability incubated for 2 days by CCK8 assay; type: functional, cell-based; details: BT-549, 48 h
DCAF11-BRD4 [15] = target: T1, DCAF11-BRD4; assay: PROTAC activity at DCAF11/BRD4 in human T47D cells assessed as induction of BRD4 degradation at 1 uM incubated for 12 hrs by immunoblot analysis; type: cell-based
DCAF11-BRD4 [16] = target: T1, DCAF11-BRD4; assay: Binding affinity to HA-tagged DCAF11/Flag-tagged BRD4 BD1 domain (unknown origin) expressed in HEK293T cells by co-immunoprecipitation analysis; type: cell-based
DCAF11-BRD4 [17] = target: T1, DCAF11-BRD4; assay: PROTAC activity at DCAF11/BRD4 in human HCC1937 cells assessed as induction of BRD4 degradation at 1 uM incubated for 12 hrs by immunoblot analysis; type: cell-based
MDA-MB-231 [18] = assay: Effect on BRD4 mRNA gene expression in human MDA-MB-231 cells at 0.1 to 1 microM incubated for 12 hrs by qPCR analysis; type: functional, cell-based; details: dose 0.1-1 µM
DCAF11-BRD4 [19] = target: T1, DCAF11-BRD4; assay: PROTAC activity at DCAF11/BRD4 in human MDA-MB-231 cells assessed as induction of BRD4 degradation at 1 to 100 nM incubated for 1 hrs by Western blot analysis; type: cell-based; details: dose 1-100 nM
DCAF11-BRD4 [20] = target: T1, DCAF11-BRD4; assay: PROTAC activity at DCAF11/BRD4 in human MDA-MB-231 cells assessed as induction of BRD4 degradation at 1 uM measured within 1 hrs by immunoblot analysis; type: cell-based
DCAF11-BRD4 [21] = target: T1, DCAF11-BRD4; assay: PROTAC activity at DCAF11/BRD4 in human MCF7 cells assessed as induction of BRD4 degradation at 1 uM incubated for 12 hrs by immunoblot analysis; type: cell-based
DCAF11-BRD4 [22] = target: T1, DCAF11-BRD4; assay: PROTAC activity at DCAF11/BRD4 in human MDA-MB-231 cells assessed as induction of BRD4 degradation incubated for 12 hrs by immunoblot analysis; type: cell-based; details: dose 0.1-1000 nM
MDA-MB-231 [23] = assay: Inhibition of cell migration in human MDA-MB-231 cells at 0.1 to 1 uM measured after 48 hrs by crystal violet staining based transwell migration assay; type: functional; details: dose 0.1-1 µM
DCAF11-BRD4 [24] = target: T1, DCAF11-BRD4; assay: PROTAC activity at DCAF11/BRD4 in human MDA-MB-231 cells assessed as induction of BRD4 degradation at 1 uM preincubated with bafilomycin A1 for 1 hrs and measured after compound addition by immunoblot analysis; type: cell-based
DCAF11-BRD4 [25] = target: T1, DCAF11-BRD4; assay: PROTAC activity at DCAF11/BRD4 BD1 domain (unknown origin) expressed in HEK293T cells assessed as induction of BRD4 degradation at 1 uM incubated for 12 hrs by Dual fluorescence reporter cell high content imaging analysis relative to control; type: cell-based
DCAF11-BRD4 [26] = target: T1, DCAF11-BRD4; assay: PROTAC activity at DCAF11/BRD4 in human MDA-MB-231 cells assessed as induction of BRD4 degradation at 1 uM preincubated with bortezomib for 1 hrs and measured after compound addition by immunoblot analysis; type: cell-based
DCAF11-BRD4 [27] = target: T1, DCAF11-BRD4; assay: PROTAC activity at DCAF11/BRD4 in human MDA-MB-231 cells assessed as induction of BRD4 degradation at 1 uM incubated for 12 hrs in presence of tert-butyl 2-(4-methyl-2-((2-oxo-6-(trifluoromethyl)indolin-3-ylidene)methyl)phenoxy)acetate by immunoblot analysis; type: cell-based
DCAF11-BRD4 [28] = target: T1, DCAF11-BRD4; assay: PROTAC activity at DCAF11/BRD4 in human MDA-MB-231 cells assessed as induction of BRD4 degradation at 10 nM incubated for 12 hrs by immunoblot analysis; type: cell-based
DCAF11-BRD4 [29] = target: T1, DCAF11-BRD4; assay: PROTAC activity at DCAF11/BRD4 in human MDA-MB-231 cells assessed as induction of BRD4 degradation at 1 uM preincubated with MLN4924 for 1 hrs and measured after compound addition by immunoblot analysis; type: cell-based
DCAF11-BRD4 [30] = target: T1, DCAF11-BRD4; assay: PROTAC activity at DCAF11/BRD4 in human MDA-MB-231 cells assessed as induction of BRD4 degradation at 1 uM preincubated with PYR41 for 1 hrs and measured after compound addition by immunoblot analysis; type: cell-based
DCAF11-BRD4 [31] = target: T1, DCAF11-BRD4; assay: PROTAC activity at DCAF11/BRD4 in human MDA-MB-231 cells assessed as induction of BRD4 degradation at 1 uM preincubated with chloroquine for 1 hrs and measured after compound addition by immunoblot analysis; type: cell-based
DCAF11-BRD4 [32] = target: T1, DCAF11-BRD4; assay: PROTAC activity at DCAF11/BRD4 in human MDA-MB-231 cells assessed as induction of BRD4 degradation at 1 uM incubated for 12 hrs in presence of JQ1 by immunoblot analysis; type: cell-based
DCAF11-BRD4 [33] = target: T1, DCAF11-BRD4; assay: PROTAC activity at DCAF11/BRD4 BD1 domain (unknown origin) expressed in HEK293T cells assessed as induction of BRD4 degradation at 10 to 100 nM incubated for 12 hrs by Dual fluorescence reporter cell high content imaging analysis; type: cell-based; details: dose 10-100 nM
DCAF11-BRD4 [34] = target: T1, DCAF11-BRD4; assay: PROTAC activity at DCAF11/BRD4 in human MDA-MB-231 cells assessed as induction of BRD4 degradation at 1 uM preincubated with MG132 for 1 hrs and measured after compound addition by immunoblot analysis; type: cell-based
DCAF11-BRD4 [35] = target: T1, DCAF11-BRD4; assay: PROTAC activity at DCAF11/BRD4 in human MDA-MB-231 cells assessed as induction of BRD4 degradation at 10 to 100 nM incubated for 1 hrs by immunoblot analysis; type: cell-based; details: dose 10-100 nM
HEK293T [36] = assay: Induction of BRD4 BD1 domain (unknown origin) degradation expressed in DCAF11 knockout HEK293T cells assessed as decrease in red fluorescence at 1 uM incubated for 12 hrs by dual fluorescence reporter cell based high content imaging analysis; details: Homo sapiens

T1 sequence (Q8TEB1 whole entry, looked up, other chains not shown): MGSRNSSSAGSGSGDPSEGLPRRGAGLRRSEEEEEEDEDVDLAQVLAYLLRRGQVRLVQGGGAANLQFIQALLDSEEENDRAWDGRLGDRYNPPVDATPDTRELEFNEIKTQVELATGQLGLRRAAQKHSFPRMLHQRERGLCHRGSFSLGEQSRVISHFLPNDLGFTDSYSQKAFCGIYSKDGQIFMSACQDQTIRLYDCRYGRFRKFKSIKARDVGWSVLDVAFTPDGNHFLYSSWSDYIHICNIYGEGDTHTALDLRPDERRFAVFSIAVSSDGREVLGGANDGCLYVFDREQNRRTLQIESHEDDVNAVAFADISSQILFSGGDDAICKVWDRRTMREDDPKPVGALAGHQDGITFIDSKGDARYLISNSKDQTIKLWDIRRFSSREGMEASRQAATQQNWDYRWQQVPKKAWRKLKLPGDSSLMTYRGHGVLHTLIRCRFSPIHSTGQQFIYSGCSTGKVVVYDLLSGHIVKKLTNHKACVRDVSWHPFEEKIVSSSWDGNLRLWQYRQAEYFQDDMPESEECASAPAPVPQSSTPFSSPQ

- Activity (DCAF11-BRD4 [1]): inactive
- IC50 (MDA-MB-468 [4]): 10000 nM
- IC50 (MDA-MB-231 [5]): 11400 nM
- IC50 (MDA-MB-231 [6]): 3710 nM
- IC50 (MDA-MB-468 [7]): 26600 nM
Structure (SMILES): Cc1ccc(OCC(=O)OC(C)(C)C)c(/C=C2\C(=O)Nc3cc(C(F)(F)F)ccc32)c1
- Activity (MDA-MB-231 [2]): inactive
- Activity (MDA-MB-231 [3]): inactive

- IC50 (MCF7): 2850 nM
- Activity (DCAF11-BRD4 [8]): Active
- IC50 (T47D): 630 nM
- Activity (DCAF11-BRD4 [11]): Active
- Activity (DCAF11-BRD4 [12]): Active
- IC50 (MDA-MB-157): 100 nM
- Activity (DCAF11-BRD4 [13]): Active
- DC50 (DCAF11-BRD4 [14]): 7.36 nM
- IC50 (HCC1937): 180 nM
- IC50 (BT-549): 6370 nM
- Activity (DCAF11-BRD4 [15]): Active
- Activity (DCAF11-BRD4 [16]): Active
- Activity (DCAF11-BRD4 [17]): Active
- Activity (DCAF11-BRD4 [20]): Active
- Activity (DCAF11-BRD4 [21]): Active
- Activity (DCAF11-BRD4 [22]): Dose-dependent-effect
- Activity (DCAF11-BRD4 [24]): Active
- Activity (DCAF11-BRD4 [25]): > 35%
- Activity (DCAF11-BRD4 [26]): inactive
- Activity (DCAF11-BRD4 [27]): inactive
- Activity (DCAF11-BRD4 [28]): Active
- IC50 (MDA-MB-231 [5]): 70 nM
- Activity (DCAF11-BRD4 [29]): inactive
- Activity (DCAF11-BRD4 [30]): inactive
- Activity (DCAF11-BRD4 [31]): Active
- Activity (DCAF11-BRD4 [32]): inactive
- Activity (DCAF11-BRD4 [33]): Active
- IC50 (MDA-MB-468 [7]): 20 nM
- Activity (DCAF11-BRD4 [34]): inactive
- Activity (DCAF11-BRD4 [35]): Active
Structure (SMILES): Cc1ccc(OCC(=O)NCCCOCCOCCOCCCNC(=O)C[C@@H]2N=C(c3ccc(Cl)cc3)c3c(sc(C)c3C)-n3c(C)nnc32)c(/C=C2\C(=O)Nc3cc(C(F)(F)F)ccc32)c1 (stereo in doubt)
- Activity (MDA-MB-231 [9]): Active
- Activity (HEK293T [10]): inactive
- Activity (MDA-MB-231 [2]): Active
- Activity (MDA-MB-231 [18]): inactive
- Activity (DCAF11-BRD4 [19]): Active; Degradation Capability Comparable To Dbet6 And Mz1
- Activity (MDA-MB-231 [3]): Active
- inhibition (MDA-MB-231 [23]): Active
- Activity (HEK293T [36]): inactive
